Experimental data published in ChEMBL document CHEMBL3217615, “Novel 3,5-bis(arylidiene)-4-piperidone based monocarbonyl analogs of curcumin: anticancer activity evaluation and mode of action study” (2014).

Tests used:
Type in all cases: functional
[1] = Growth inhibition of human OVCAR3 cells assessed as cell growth at 10^-7 M after 48 hrs by sulforhodamine B assay; details: OVCAR-3, 48 h, read-out: Activity
[2] = Growth inhibition of human RXF393 cells assessed as cell growth at 10^-7 M after 48 hrs by sulforhodamine B assay; details: RXF 393, 48 h, read-out: Activity
[3] = Growth inhibition of human MOLT4 cells assessed as cell growth at 10^-6 M after 48 hrs by sulforhodamine B assay; details: MOLT-4, 48 h, read-out: Activity
A549 = experiment: Growth inhibition of human A549/ATCC cells assessed as cell growth at 10^-6 M after 48 hrs by sulforhodamine B assay; details: A549, 48 h, read-out: Activity
[4] = Growth inhibition of human SF539 cells after 48 hrs by sulforhodamine B assay; details: SF-539, 48 h; for CC50: read-out: LC50 (the source's name)
[5] = Growth inhibition of human HCT15 cells after 48 hrs by sulforhodamine B assay; details: HCT-15, 48 h; for CC50: read-out: LC50 (the source's name)
[6] = Growth inhibition of human UACC62 cells assessed as cell growth at 10^-7 M after 48 hrs by sulforhodamine B assay; details: UACC-62, 48 h, read-out: Activity
HOP-62 = experiment: Growth inhibition of human HOP62 cells after 48 hrs by sulforhodamine B assay; details: HOP-62, 48 h; for CC50: read-out: LC50 (the source's name)
786-0 [7] = experiment: Growth inhibition of human 786-0 cells after 48 hrs by sulforhodamine B assay; details: 786-0, 48 h; for CC50: read-out: LC50 (the source's name)
SR = experiment: Growth inhibition of human SR cells after 48 hrs by sulforhodamine B assay; details: for CC50: read-out: LC50 (the source's name)
KM12 = experiment: Growth inhibition of human KM12 cells assessed as cell growth at 10^-8 M after 48 hrs by sulforhodamine B assay; details: KM12, 48 h; for growth at 0.01 µM: read-out: Activity; for TGI: read-out: pTGI (converted)
MDA-MB-435 = experiment: Growth inhibition of human MDA-MB-435 cells assessed as cell growth at 10^-8 M after 48 hrs by sulforhodamine B assay; details: MDA-MB-435, 48 h; for growth at 0.01 µM: read-out: Activity; for TGI: read-out: pTGI (converted)
SW-620 = experiment: Growth inhibition of human SW620 cells assessed as cell growth at 10^-8 M after 48 hrs by sulforhodamine B assay; details: SW-620, 48 h; for growth at 0.01 µM: read-out: Activity; for TGI: read-out: pTGI (converted)
[8] = Growth inhibition of human UO31 cells assessed as cell growth at 10^-6 M after 48 hrs by sulforhodamine B assay; details: UO-31, 48 h, read-out: Activity
NCI-H460 = experiment: Growth inhibition of human NCI-H460 cells assessed as cell growth at 10^-7 M after 48 hrs by sulforhodamine B assay; details: NCI-H460, 48 h, read-out: Activity
COLO 205 = experiment: Growth inhibition of human COLO205 cells assessed as cell growth at 10^-8 M after 48 hrs by sulforhodamine B assay; details: COLO 205, 48 h; for growth at 0.01 µM: read-out: Activity; for TGI: read-out: pTGI (converted)
786-0 [9] = experiment: Growth inhibition of human 786-0 cells assessed as cell growth at 10^-8 M after 48 hrs by sulforhodamine B assay; details: 786-0, 48 h; for growth at 0.01 µM: read-out: Activity; for TGI: read-out: pTGI (converted)
MDA-MB-231 = experiment: Growth inhibition of human MDA-MB-231 cells assessed as cell growth at 10^-6 M after 48 hrs by sulforhodamine B assay; details: MDA-MB-231, 48 h, read-out: Activity
NCI-H226 = experiment: Growth inhibition of human NCI-H226 cells assessed as cell growth at 10^-6 M after 48 hrs by sulforhodamine B assay; details: NCI-H226, 48 h, read-out: Activity
[10] = Growth inhibition of human LOXIMVI cells assessed as cell growth at 10^-7 M after 48 hrs by sulforhodamine B assay; details: LOX IMVI, read-out: Activity
[11] = Growth inhibition of human BT549 cells assessed as cell growth at 10^-8 M after 48 hrs by sulforhodamine B assay; details: BT-549, 48 h; for growth at 0.01 µM: read-out: Activity; for TGI: read-out: pTGI (converted)
SNB-19 = experiment: Growth inhibition of human SNB19 cells assessed as cell growth at 10^-4 M after 48 hrs by sulforhodamine B assay; details: SNB-19, 48 h, read-out: Activity
[12] = Growth inhibition of human OVCAR3 cells after 48 hrs by sulforhodamine B assay; details: OVCAR-3, 48 h; for CC50: read-out: LC50 (the source's name)
DU-145 [13] = experiment: Growth inhibition of human DU145 cells assessed as cell growth at 10^-6 M after 48 hrs by sulforhodamine B assay; details: DU-145, 48 h, read-out: Activity
[14] = Growth inhibition of human UO31 cells after 48 hrs by sulforhodamine B assay; details: UO-31, 48 h; for CC50: read-out: LC50 (the source's name)
IGROV-1 = experiment: Growth inhibition of human IGROV1 cells assessed as cell growth at 10^-6 M after 48 hrs by sulforhodamine B assay; details: IGROV-1, 48 h, read-out: Activity
HL-60(TB) = experiment: Growth inhibition of human HL-60(TB) cells assessed as cell growth at 10^-6 M after 48 hrs by sulforhodamine B assay; details: HL-60, 48 h, read-out: Activity
A498 = experiment: Growth inhibition of human A498 cells assessed as cell growth at 10^-6 M after 48 hrs by sulforhodamine B assay; details: A498, 48 h, read-out: Activity
K562 = experiment: Growth inhibition of human K562 cells assessed as cell growth at 10^-6 M after 48 hrs by sulforhodamine B assay; details: K562, 48 h, read-out: Activity
[15] = Growth inhibition of human UACC257 cells assessed as cell growth at 10^-5 M after 48 hrs by sulforhodamine B assay; details: UACC-257, 48 h, read-out: Activity
DU-145 [16] = experiment: Growth inhibition of human DU145 cells assessed as cell growth at 10^-4 M after 48 hrs by sulforhodamine B assay; details: DU-145, 48 h, read-out: Activity
NCI-H23 = experiment: Growth inhibition of human NCI-H23 cells assessed as cell growth at 10^-4 M after 48 hrs by sulforhodamine B assay; details: NCI-H23, 48 h, read-out: Activity
[17] = Growth inhibition of human SF295 cells assessed as cell growth at 10^-6 M after 48 hrs by sulforhodamine B assay; details: SF-295, 48 h, read-out: Activity

Work on Cc1ccc(S(=O)(=O)N2C/C(=C\c3cc(F)cc(F)c3)C(=O)/C(=C/c3cc(F)cc(F)c3)C2)cc1 yielded a growth at 0.1 µM [1] of 112%, a growth at 0.1 µM [2] of 88% and a growth at 1 µM [3] of 8%. For the same compound, the growth at 1 µM (A549) was 86%, the GI50 [4] was 1210 nM and the TGI [4] was 2870 nM. It also gave a CC50 [4] of 6810 nM, a GI50 [5] of 250 nM and a TGI [5] of 1300 nM. The CC50 [5] was 30700 nM, the growth at 0.1 µM [6] was 93% and the GI50 (HOP-62) was 2040 nM. For the same compound, the TGI (HOP-62) was 4640 nM, the CC50 (HOP-62) was 11900 nM and the GI50 (786-0 [7]) was 587 nM. It also gave a TGI (786-0 [7]) of 1910 nM, a CC50 (786-0 [7]) of 4950 nM and a GI50 (SR) of 34.8 nM. For the same compound, the TGI (SR) was 252 nM, the CC50 (SR) was over 100000 nM and the GI50 (KM12) was 324 nM. It also gave an LC50 (KM12) of 4070 nM, a growth at 0.01 µM (KM12) of 106% and a TGI (KM12) of 1000 nM. The GI50 (MDA-MB-435) was 240 nM, the LC50 (MDA-MB-435) was 3630 nM and the growth at 0.01 µM (MDA-MB-435) was 96%. For the same compound, the TGI (MDA-MB-435) was 692 nM, the GI50 (SW-620) was 72.4 nM and the LC50 (SW-620) was 1450 nM. The growth at 0.01 µM (SW-620) was 99%, the TGI (SW-620) was 302 nM and the growth at 1 µM [8] was 55%. The growth at 0.1 µM (NCI-H460) was 104%, the GI50 (COLO 205) was 617 nM and the LC50 (COLO 205) was 6170 nM. It also gave a growth at 0.01 µM (COLO 205) of 107%, a TGI (COLO 205) of 2090 nM and a GI50 (786-0 [9]) of 589 nM. The LC50 (786-0 [9]) was 4900 nM, the growth at 0.01 µM (786-0 [9]) was 104% and the TGI (786-0 [9]) was 1910 nM. For the same compound, the growth at 1 µM (MDA-MB-231) was -11%, the growth at 1 µM (NCI-H226) was 90% and the growth at 0.1 µM [10] was 92%. It also gave a GI50 [11] of 339 nM, an LC50 [11] of 3550 nM and a growth at 0.01 µM [11] of 102%. For the same compound, the TGI [11] was 933 nM, the growth at 100 µM (SNB-19) was -100% and the GI50 [12] was 441 nM. The TGI [12] was 1440 nM, the CC50 [12] was 4560 nM and the growth at 1 µM (DU-145 [13]) was 62%. For the same compound, the GI50 [14] was 1090 nM, the TGI [14] was 2370 nM and the CC50 [14] was 5170 nM. For the same compound, the growth at 1 µM (IGROV-1) was 18%, the growth at 1 µM (HL-60(TB)) was 4% and the growth at 1 µM (A498) was 91%. For the same compound, the growth at 1 µM (K562) was 3%, the growth at 10 µM [15] was -57% and the growth at 100 µM (DU-145 [16]) was -87%. It also gave a growth at 100 µM (NCI-H23) of -72% and a growth at 1 µM [17] of 29%.

Compound O=C1/C(=C/c2ccc(Cl)cc2Cl)CN(S(=O)(=O)c2ccccc2)C/C1=C\c1ccc(Cl)cc1Cl has a growth at 0.1 µM [1] of 108%, a growth at 0.1 µM [2] of 84% and a growth at 1 µM [3] of 34%. The growth at 1 µM (A549) was -5%, the GI50 [4] was 424 nM and the TGI [4] was 2070 nM. The CC50 [4] was over 100000 nM, the GI50 [5] was 247 nM and the TGI [5] was 759 nM. For the same compound, the CC50 [5] was over 100000 nM, the growth at 0.1 µM [6] was 95% and the GI50 (HOP-62) was 385 nM. For the same compound, the TGI (HOP-62) was over 100000 nM, the CC50 (HOP-62) was over 100000 nM and the GI50 (786-0 [7]) was 241 nM. It also gave a TGI (786-0 [7]) of 544 nM, a CC50 (786-0 [7]) of 1710 nM and a GI50 (SR) of 185 nM. For the same compound, the TGI (SR) was 865 nM, the CC50 (SR) was over 100000 nM and the GI50 (KM12) was 257 nM. For the same compound, the LC50 (KM12) was 25700 nM, the growth at 0.01 µM (KM12) was 100% and the TGI (KM12) was 603 nM. For the same compound, the GI50 (MDA-MB-435) was 977 nM, the LC50 (MDA-MB-435) was over 100000 nM and the growth at 0.01 µM (MDA-MB-435) was 90%. The TGI (MDA-MB-435) was 3240 nM, the GI50 (SW-620) was 316 nM and the LC50 (SW-620) was over 100000 nM. It also gave a growth at 0.01 µM (SW-620) of 97%, a TGI (SW-620) of 2820 nM and a growth at 1 µM [8] of -22%. It also gave a growth at 0.1 µM (NCI-H460) of 98%, a GI50 (COLO 205) of 427 nM and an LC50 (COLO 205) of over 100000 nM. For the same compound, the growth at 0.01 µM (COLO 205) was 106%, the TGI (COLO 205) was 2000 nM and the GI50 (786-0 [9]) was 240 nM. The LC50 (786-0 [9]) was 1700 nM, the growth at 0.01 µM (786-0 [9]) was 101% and the TGI (786-0 [9]) was 550 nM. For the same compound, the growth at 1 µM (MDA-MB-231) was 26%, the growth at 1 µM (NCI-H226) was 52% and the growth at 0.1 µM [10] was 89%. For the same compound, the GI50 [11] was 977 nM, the LC50 [11] was over 100000 nM and the growth at 0.01 µM [11] was 106%. The TGI [11] was 4170 nM, the growth at 100 µM (SNB-19) was -23% and the GI50 [12] was 310 nM. The TGI [12] was 818 nM, the CC50 [12] was 5010 nM and the growth at 1 µM (DU-145 [13]) was 18%. For the same compound, the GI50 [14] was 236 nM, the TGI [14] was 639 nM and the CC50 [14] was 4750 nM. The growth at 1 µM (IGROV-1) was -30%, the growth at 1 µM (HL-60(TB)) was 36% and the growth at 1 µM (A498) was 48%. For the same compound, the growth at 1 µM (K562) was 8%, the growth at 10 µM [15] was 27% and the growth at 100 µM (DU-145 [16]) was -10%. The growth at 100 µM (NCI-H23) was -28% and the growth at 1 µM [17] was 13%.
